Results as given in patent US12589156B2, “Benzimidazole and benzimidazolone based protac compounds for the targeted degradation of leucine rich repeat kinase 2 (LRRK2)” (Arvinas Operations, Inc., priority 2023, dated 2026).

Biological target: T1, WT LRRK2 (Homo sapiens, UniProt Q5S007)
T1 construct: endogenous in cells; host or cells: HEK293 (endogenous LRRK2 gene knock-in tagged with HiBit; stably expressing CMV-driven firefly luciferase)
Assay: LRRK2 HiBit degradation assay (Nano-Glo Dual Luciferase) in HEK293 cells with HiBit-tagged endogenous LRRK2
Type: cell-based
Details: HiBit-tagged LRRK2 in HEK293 cells, 24 hours treatment; for Dmax: maximal degradation; for DC50: starting concentration 1 μM
Description: Biological Assays Exemplary Assay for Testing LRRK2 Degradation Driven by Exemplary Hetero-Bifunctional Compounds Designed to Target LRRK2
The assay measures the degradation of LRRK2 in cells where the C-terminus (3′) of the endogenous gene has been tagged with a HiBit sequence in HEK293 cells. The cells also express firefly lucisferase, expressed from a Cytomegalovirus promoter and introduced into the HiBit tagged cells and stably expressed. The Nano-Glo® Dual Luciferase Reporter Assay System (Promega™, Madison, WI) was utilized.
Day 1—Preparation of Compound and Assay Plates. Two sets of plates were prepared: a triplicate set for the HiBit assay in white 384-well plates and a triplicate set of plate in black 384-well plates for the Alamar Blue cell viability assay. Briefly, the growth media (DMEM+Glutamax-10% fetal bovine serum-1% Penicillin-Streptomicin) from two T128 flasks was aspirated from the flasks. Cells were washed with Dulbecco's Phosphate Buffered Saline (dPBS) and aspirated. Trypsin (3 mL per flask) was added and the flasks were incubated for 2-3 minutes.
Ten mL of OptiMEM—10% fetal bovine-1% penicillin-streptomycin (hereinafter, “OptiMEM media”) was added to the flask and the cells and transferred to a 50 ml conical tube. A cell count (25 ul of cell into Effendorf vial+25 ul of Trypan Blue Stain) was performed and the cell density adjusted to 15,000 cell/45 μl/well (3.33×10^5/mL) in OptiMEM media.
Forty-five microliters of the cell suspension (15,000 cells) was aliquoted to each well of the white 384-well plate. The plates incubated at room temperature for 10 minutes before being placed in the 37° C.+5% CO2 incubator overnight
Day 2—Compound Treatment. Exemplary compounds were prepared at a 1 mM starting concentration and 1:3 serial dilution for 11 points CRC prepared and stored in the freezer. The Master Compound Plate was thawed overnight at room temperature. DMSO (20 μL) was added into column 24 of the Master Compound Plate for negative control and 20 μL of 300 μM of Compound 4 in column 23 as positive control.
Intermediate Compound Plate with 4% DMSO in OptiMEM Media. DMSO was added to warm OptiMEM media to achieve a 4% DMSO solution (approximately 50 mL/plate). One-hundred microliters of the OptiMEM-4% DMSO was aliquoted to each well of 384-Well Deep Well Microplates.
The Master Compound Plate and the Intermediate Compound Plate were spun down.
One microliter of compound from the Master Compound Plate was transferred into the Intermediate plate (a 1:100 dilution). The diluted mixture was mixed and 5 μL transferred into the assay plate (a 1:10 dilution) for the final starting concentration of 1 μM. The Treated Assay plates were incubated for 24 hours at 37° C.+5% CO2. The Master Compound Plate was sealed and store at room temperature for a second run that was performed within a week.
One set of white assay plates was warmed to room temperature (45 minute).
The One Glo luciferase mixture was prepared. The media from white 384-well assay plates was aspirated. Twenty-five μL of the One Glo luciferase mixture was added to each well of the assay plates. The plates were incubated on the bench (room temperature) for 45 minutes, including 10 minutes of shaking at 700 rpm. The luminescence of each plate was read on a plate reader.
1:100 DLR substrate and 1:100 LgBiT Protein dilution were added to the Promega Stop and Glo buffer and mixed just before addition to assay plates. Twenty-five microliters of Stop and Glo mixture was added to each well. Assay plates incubated for at least 45 minutes, including 10 minutes of shaking at 700 rpm. The luminescence of each plate was read on a plate reader.
Analysis of LRRK2 HiBit Screening assays. As mentioned above, plates were run in triplicate and the assay repeated twice (total of 6 replicate for exemplary compounds). For each treatment, measurements were taken for firefly luciferase for cell number, cell viability (Alamar Blue), and Nanoluc for the LRRK2-HiBit quantification. […]

T1 sequence (Q5S007 whole entry): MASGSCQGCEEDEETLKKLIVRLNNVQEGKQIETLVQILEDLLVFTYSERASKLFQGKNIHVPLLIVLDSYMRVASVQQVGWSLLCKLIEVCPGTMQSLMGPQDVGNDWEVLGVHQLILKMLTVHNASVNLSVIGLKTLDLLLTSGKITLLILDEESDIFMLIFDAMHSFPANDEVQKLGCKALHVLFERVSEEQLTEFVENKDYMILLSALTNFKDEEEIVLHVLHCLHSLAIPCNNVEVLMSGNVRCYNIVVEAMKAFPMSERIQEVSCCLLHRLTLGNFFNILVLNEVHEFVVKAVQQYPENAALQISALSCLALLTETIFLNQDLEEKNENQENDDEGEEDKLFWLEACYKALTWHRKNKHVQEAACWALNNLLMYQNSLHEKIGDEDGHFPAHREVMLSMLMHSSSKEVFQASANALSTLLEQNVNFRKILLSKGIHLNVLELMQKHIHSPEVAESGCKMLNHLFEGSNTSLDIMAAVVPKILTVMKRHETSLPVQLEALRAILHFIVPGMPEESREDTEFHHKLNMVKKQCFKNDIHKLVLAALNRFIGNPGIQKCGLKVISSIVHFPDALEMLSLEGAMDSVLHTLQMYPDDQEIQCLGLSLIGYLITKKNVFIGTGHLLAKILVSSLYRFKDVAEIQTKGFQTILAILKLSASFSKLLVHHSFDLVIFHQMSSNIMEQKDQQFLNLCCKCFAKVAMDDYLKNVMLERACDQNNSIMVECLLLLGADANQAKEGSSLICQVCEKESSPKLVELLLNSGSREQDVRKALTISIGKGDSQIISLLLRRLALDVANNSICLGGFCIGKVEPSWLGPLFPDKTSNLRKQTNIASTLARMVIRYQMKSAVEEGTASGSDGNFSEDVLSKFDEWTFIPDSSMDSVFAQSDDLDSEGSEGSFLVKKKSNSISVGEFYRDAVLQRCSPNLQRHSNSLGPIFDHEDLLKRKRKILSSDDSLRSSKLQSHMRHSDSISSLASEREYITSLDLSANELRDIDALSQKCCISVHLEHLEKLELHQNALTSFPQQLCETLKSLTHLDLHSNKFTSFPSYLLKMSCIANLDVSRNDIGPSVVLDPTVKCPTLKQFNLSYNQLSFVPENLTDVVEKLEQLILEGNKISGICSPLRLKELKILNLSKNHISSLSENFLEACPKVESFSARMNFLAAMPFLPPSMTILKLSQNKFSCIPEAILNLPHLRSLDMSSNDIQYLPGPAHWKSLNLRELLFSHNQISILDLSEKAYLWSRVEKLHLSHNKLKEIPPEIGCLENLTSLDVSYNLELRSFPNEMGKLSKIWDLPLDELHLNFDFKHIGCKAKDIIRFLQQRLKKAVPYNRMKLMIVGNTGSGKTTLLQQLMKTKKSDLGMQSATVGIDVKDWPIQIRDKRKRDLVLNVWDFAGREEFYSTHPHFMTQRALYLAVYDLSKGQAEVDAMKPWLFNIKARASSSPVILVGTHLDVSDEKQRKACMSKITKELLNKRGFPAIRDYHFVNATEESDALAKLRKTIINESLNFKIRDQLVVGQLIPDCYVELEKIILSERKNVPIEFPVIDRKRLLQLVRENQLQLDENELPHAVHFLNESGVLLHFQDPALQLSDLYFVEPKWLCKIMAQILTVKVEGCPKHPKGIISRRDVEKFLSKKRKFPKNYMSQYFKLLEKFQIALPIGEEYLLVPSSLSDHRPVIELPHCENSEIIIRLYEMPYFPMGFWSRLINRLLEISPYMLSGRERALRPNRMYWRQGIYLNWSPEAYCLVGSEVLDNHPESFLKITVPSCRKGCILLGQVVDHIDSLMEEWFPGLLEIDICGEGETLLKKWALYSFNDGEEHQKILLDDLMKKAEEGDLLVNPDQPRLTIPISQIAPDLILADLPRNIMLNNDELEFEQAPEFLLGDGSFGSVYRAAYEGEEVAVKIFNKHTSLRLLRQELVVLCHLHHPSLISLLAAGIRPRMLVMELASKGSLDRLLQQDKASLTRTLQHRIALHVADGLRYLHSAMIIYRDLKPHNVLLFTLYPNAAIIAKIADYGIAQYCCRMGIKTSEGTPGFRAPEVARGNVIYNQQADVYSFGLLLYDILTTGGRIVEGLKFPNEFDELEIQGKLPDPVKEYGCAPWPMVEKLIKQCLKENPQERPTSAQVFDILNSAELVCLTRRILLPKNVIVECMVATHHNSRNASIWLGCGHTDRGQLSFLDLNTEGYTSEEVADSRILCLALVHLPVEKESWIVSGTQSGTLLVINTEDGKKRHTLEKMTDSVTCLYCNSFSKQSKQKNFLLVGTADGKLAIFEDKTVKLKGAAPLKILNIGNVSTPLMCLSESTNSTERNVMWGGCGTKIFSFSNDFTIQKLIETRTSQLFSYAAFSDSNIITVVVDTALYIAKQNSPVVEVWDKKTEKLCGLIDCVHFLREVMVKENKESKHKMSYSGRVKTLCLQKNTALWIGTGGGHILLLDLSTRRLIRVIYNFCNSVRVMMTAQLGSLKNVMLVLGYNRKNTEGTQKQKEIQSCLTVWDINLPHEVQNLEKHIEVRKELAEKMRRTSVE

SMILES	Dmax (HEK293, Table 2) [%]	DC50 (Table 2) [nM]	Dmax (Table 2) [%]
Cn1c(=O)n(C2CCC(=O)NC2=O)c2ccc(N3CCC(O[C@H]4CC[C@H](CN5CCN(c6cc(-c7n[nH]c8cnc(OC(C)(C)C)cc78)ncn6)CC5)CC4)CC3)cc21 (single isomer, unassigned) [Compound 19, rel-3-[3-methyl-2-oxo-5-(4-{[(1r,4r)-4-[(4-{6-[5-(tert-butoxy)-1H-pyrazolo[3,4-c]pyridin-3-yl]pyrimidin-4-yl}piperazin-1-yl)methyl]cyclohexyl]oxy}piperidin-1-yl)-2,3-dihydro-1H-1,3-benzodiazol-1-yl]piperidine-2,6-dione]	76	28	
COc1cc2c(-c3cc(N4CCN(C[C@H]5CC[C@H](OC6CCN(c7ccc8c(c7)n(C)c(=O)n8C7CCC(=O)NC7=O)CC6)CC5)CC4)ncn3)n[nH]c2cn1 (single isomer, unassigned) [Compound 21, rel-3-[3-methyl-2-oxo-5-(4-{[(1r,4r)-4-{[4-(6-{5-methoxy-1H-pyrazolo[3,4-c]pyridin-3-yl}pyrimidin-4-yl)piperazin-1-yl]methyl}cyclohexyl]oxy}piperidin-1-yl)-2,3-dihydro-1H-1,3-benzodiazol-1-yl]piperidine-2,6-dione]		≥ 1000	
CC(C)Oc1ccc2[nH]nc(-c3cc(N4CCC(O[C@H]5CC[C@H](OC6CCN(c7ccc8c(c7)n(C)c(=O)n8C7CCC(=O)NC7=O)CC6)CC5)CC4)ncn3)c2c1 (single isomer, unassigned) [Compound 27, rel-3-[3-methyl-2-oxo-5-(4-{[(1r,4r)-4-[(1-{6-[5-(propan-2-yloxy)-1H-indazol-3-yl]pyrimidin-4-yl}piperidin-4-yl)oxy]cyclohexyl]oxy}piperidin-1-yl)-2,3-dihydro-1H-1,3-benzodiazol-1-yl]piperidine-2,6-dione]	57	0.25	
Cn1c(=O)n(C2CCC(=O)NC2=O)c2ccc(N3CCC(O[C@H]4C[C@H](OC5CCN(c6cc(-c7n[nH]c8ccc(OC9(C)CC9)cc78)ncn6)CC5)C4)CC3)cc21 (single isomer, unassigned) [Compound 29, rel-3-(3-methyl-2-oxo-5-{4-[(1r,3r)-3-[(1-{6-[5-(1-methylcyclopropoxy)-1H-indazol-3-yl]pyrimidin-4-yl}piperidin-4-yl)oxy]cyclobutoxy]piperidin-1-yl}-2,3-dihydro-1H-1,3-benzodiazol-1-yl)piperidine-2,6-dione]		0.16	54
Cn1c(=O)n(C2CCC(=O)NC2=O)c2ccc(N3CCC(O[C@H]4C[C@H](OC5CCN(c6cc(-c7n[nH]c8cnc(OC9(C)CC9)cc78)ncn6)CC5)C4)CC3)cc21 (single isomer, unassigned) [Compound 30, rel-3-(3-methyl-2-oxo-5-{4-[(1r,3r)-3-[(1-{6-[5-(1-methylcyclopropoxy)-1H-pyrazolo[3,4-c]pyridin-3-yl]pyrimidin-4-yl}piperidin-4-yl)oxy]cyclobutoxy]piperidin-1-yl}-2,3-dihydro-1H-1,3-benzodiazol-1-yl)piperidine-2,6-dione]		0.065	48
CC(C)Oc1cc2c(-c3cc(N4CCC(O[C@H]5C[C@H](OC6CCN(c7ccc8c(c7)n(C)c(=O)n8C7CCC(=O)NC7=O)CC6)C5)CC4)ncn3)n[nH]c2cn1 (single isomer, unassigned) [Compound 31, rel-3-(3-methyl-2-oxo-5-{4-[(1r,3r)-3-[(1-{6-[5-(propan-2-yloxy)-1H-pyrazolo[3,4-c]pyridin-3-yl]pyrimidin-4-yl}piperidin-4-yl)oxy]cyclobutoxy]piperidin-1-yl}-2,3-dihydro-1H-1,3-benzodiazol-1-yl)piperidine-2,6-dione]		160	61
Cn1c(=O)n(C2CCC(=O)NC2=O)c2ccc(N3CCC(OC[C@H]4C[C@H](OC5CCN(c6cc(-c7n[nH]c8cnc(OC9(C)CC9)cc78)ncn6)CC5)C4)CC3)cc21 (single isomer, unassigned) [Compound 32, rel-3-[3-methyl-2-oxo-5-(4-{[(1r,3r)-3-[(1-{6-[5-(1-methylcyclopropoxy)-1H-pyrazolo[3,4-c]pyridin-3-yl]pyrimidin-4-yl}piperidin-4-yl)oxy]cyclobutyl]methoxy}piperidin-1-yl)-2,3-dihydro-1H-1,3-benzodiazol-1-yl]piperidine-2,6-dione]		0.33	51
Cn1c(=O)n(C2CCC(=O)NC2=O)c2ccc(N3CCC(OC[C@H]4C[C@H](OC5CCN(c6cc(-c7n[nH]c8ccc(OC9(C)CC9)cc78)ncn6)CC5)C4)CC3)cc21 (single isomer, unassigned) [Compound 33, rel-3-[3-methyl-2-oxo-5-(4-{[(1r,3r)-3-[(1-{6-[5-(1-methylcyclopropoxy)-1H-indazol-3-yl]pyrimidin-4-yl}piperidin-4-yl)oxy]cyclobutyl]methoxy}piperidin-1-yl)-2,3-dihydro-1H-1,3-benzodiazol-1-yl]piperidine-2,6-dione]		0.14	62

Now from value to molecule, other results behind:

Dmax (HEK293, Table 2) [%]	SMILES	DC50 (Table 2) [nM]	Dmax (Table 2) [%]
40	CC(C)Oc1cc2c(-c3cc(N4CCN(C[C@H]5CC[C@H](OC6CCN(c7ccc8c(c7)n(C)c(=O)n8C7CCC(=O)NC7=O)CC6)CC5)CC4)ncn3)n[nH]c2cn1 (single isomer, unassigned) [Compound 20, rel-3-[3-methyl-2-oxo-5-(4-{[(1r,4r)-4-[(4-{6-[5-(propan-2-yloxy)-1H-pyrazolo[3,4-c]pyridin-3-yl]pyrimidin-4-yl}piperazin-1-yl)methyl]cyclohexyl]oxy}piperidin-1-yl)-2,3-dihydro-1H-1,3-benzodiazol-1-yl]piperidine-2,6-dione]	0.56	
46	Cn1c(=O)n(C2CCC(=O)NC2=O)c2ccc(N3CCC(O[C@H]4CC[C@H](CN5CCN(c6cc(-c7n[nH]c8cnc(C9(C#N)CCC9)cc78)ncn6)CC5)CC4)CC3)cc21 (single isomer, unassigned) [Compound 22, rel-1-{3-[6-(4-{[(1r,4r)-4-({1-[1-(2,6-dioxopiperidin-3-yl)-3-methyl-2-oxo-2,3-dihydro-1H-1,3-benzodiazol-5-yl]piperidin-4-yl}oxy)cyclohexyl]methyl}piperazin-1-yl)pyrimidin-4-yl]-1H-pyrazolo[3,4-c]pyridin-5-yl}cyclobutane-1-carbonitrile]	0.14	
45	Cn1c(=O)n(C2CCC(=O)NC2=O)c2ccc(N3CCC(O[C@H]4CC[C@H](CN5CCN(c6cc(-c7n[nH]c8cnc(C9(C#N)CC9)cc78)ncn6)CC5)CC4)CC3)cc21 (single isomer, unassigned) [Compound 23, rel-1-{3-[6-(4-{[(1r,4r)-4-({1-[1-(2,6-dioxopiperidin-3-yl)-3-methyl-2-oxo-2,3-dihydro-1H-1,3-benzodiazol-5-yl]piperidin-4-yl}oxy)cyclohexyl]methyl}piperazin-1-yl)pyrimidin-4-yl]-1H-pyrazolo[3,4-c]pyridin-5-yl}cyclopropane-1-carbonitrile]	0.56	
49	Cn1c(=O)n(C2CCC(=O)NC2=O)c2ccc(N3CCC(O[C@H]4CC[C@H](CN5CCN(c6cc(-c7n[nH]c8cnc(C9(C#N)CC%10(CC%10)C9)cc78)ncn6)CC5)CC4)CC3)cc21 (single isomer, unassigned) [Compound 24, rel-5-{3-[6-(4-{[(1r,4r)-4-({1-[1-(2,6-dioxopiperidin-3-yl)-3-methyl-2-oxo-2,3-dihydro-1H-1,3-benzodiazol-5-yl]piperidin-4-yl}oxy)cyclohexyl]methyl}piperazin-1-yl)pyrimidin-4-yl]-1H-pyrazolo[3,4-c]pyridin-5-yl}spiro[2.3]hexane-5-carbonitrile]	0.46	
